Assay results reported in article PMC12648313, “Enhancing the Efficacy, Utility, and Throughput of the Transcription Block Survival Peptide Library Screening Platform” (JACS Au, 2025).

Legend:
ATF2 bZIP-CRE DNA = test: TBS peptide library screening, competition selection; format: cell-based, human ATF2 bZIP, in E. coli BL21-Gold; conditions: 11.3-million-member library; nine rounds of selection; 9xCRE mDHFR; selective M9, 37 °C
From the text: This validates the new TBS design for the introduction of a transcriptional block and for the ability of antagonist peptides to restore bacterial growth in the CRE/CREB systems. We next constructed an 11.3-million-member peptide library to identify antagonists of ATF2, representing the first such effort to target this TF. This library design includes an N-terminal acidic domain, developed by Vinson and coworkers to engage bZIP DNA-binding domains (DBDs), followed by a semirandomized LZ region. Canonical coiled coil heptad repeat e and g positions were semirandomized to include glu, gln or lys options, with two exceptions to increase library diversity: e7 (ile, asn, asp or val) and g8 (leu, gln, glu or val). The a positions were randomized to select from leu, ile or val, to optimize hydrophobic packing in the coiled coil core, except a6 which also included asn or asp to investigate potential core polar interactions. The d positions were fixed as leu to promote formation of a desired parallel, dimeric coiled coil. […]
colonies: E = […] where E is the percentage of the library missing, m is the number of colonies collected and n is the library size. Library DNA quality was assessed by sequencing both the DNA pool and a number of single colonies to show degenerate codons in the correct positions in the pool and to show a diversity of library members from single […]

ATF2-CRE DNA interaction = molecular target: T1, ATF2-CRE DNA interaction (Homo sapiens, UniProt P15336); test: FP antagonism assay ATF2-CRE; format: biochemical; conditions: up to 12 μM ATF2W
T1 construct: human ATF2 bZIP domain spans from Asp352 to Gln410; made in house; host or cells: chemical synthesis (Fmoc solid-phase peptide synthesis), no expression host
T1 sequence (P15336 352-410): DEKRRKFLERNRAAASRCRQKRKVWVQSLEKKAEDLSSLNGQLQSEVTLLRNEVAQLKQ
Description: Fluorescence polarization (FP) was next utilized to confirm that ATF2W binding induces the intended antagonism of the ATF2-CRE interaction. […] To assess ATF2W antagonism, 625 nM ATF2, which corresponded to 80% of the maximum DNA binding, was incubated with CRE DNA (10 nM) and varied concentrations of ATF2W (29 nM-12 μM). […] This represents a ∼ 3-fold selectivity for ATF2. […] As the peptide library was designed using established coiled coil interaction rules, it was expected that many sequences would bind the target.
(DMF). Deprotection was performed by addition of 0.75 mL 30% pyrrolidine into the coupling reaction. Peptides were acetylated at the N-terminus by a final reaction with 3x acetic anhydride, 4.5x diisopropylethylamine in DMF for one hour at room temperature. Incubation in a cleavage mixture (95% TFA, 2.5% triisopropylsilane, 2.5% H2O, 10 mL) for 4 h at room temperature cleaved the peptide from the resin and removed side chain protecting groups.
2.5% DODT was added to the cleavage cocktail for ATF2. The resin was removed by filtration and cleaved peptides were precipitated in diethyl ether at -80°C and centrifuged.
This pellet was washed a further four times with diethyl ether before it was dried overnight at room temperature. […]

cJun-TRE complex = molecular target: T2, cJun-TRE complex (Homo sapiens, UniProt P05412); test: FP antagonism assay cJun-TRE; format: biochemical
T2 construct: In the case of the CREB1 and cJun bZIP domains

## Ac-LEQQLEELAQENEELEKEAAELQQQIARLKNEVAKLENENKTLDREIKALQREYSHKSD-NH2 [ATF2W]
ATF2 bZIP-CRE DNA
  outcome of TBS selection: single dominant hit
ATF2-CRE DNA interaction
  ATF2-CRE antagonism at top concentrations: reducing the FP value to that of free DNA
cJun-TRE complex; FP IC50, cJun-TRE vs ATF2-CRE
  fold selectivity for ATF2 over cJun: ~3 -fold
cJun-TRE complex; FP, FAM-TRE DNA, equivalent experiment, pH 7.4
  IC50: 1850 ± 213 nM
